One may read the logP as a log measure of how a compound divides between an organic and an aqueous phase. Lower therefore signals lower lipophilicity.

The compound `CC(=O)OCC(=O)[C@@]1(O)CC[C@H]2[C@@H]3CCC4=CC(=O)C=C[C@]4(C)[C@H]3[C@@H](O)C[C@@]21C` displayed a logP of 2.4.

With `CCOC(=O)C(=Cc1cccc(Cl)c1)C(C)=O`, the logP is 2.97.

The compound `c1cncc([C@@H]2CCCCN2)c1` gave a logP of 0.97.

Take `O=C1CCC(c2ccccc2)(C2CCN(Cc3ccccc3)CC2)C(=O)N1` (stereo unspecified): the logP was 3.55.

As for `CCCCCCCCCC(=O)N1CCCC1=O`, the logP is 4.33.

On to `CC(C)C(=O)NC(N)=O`, for which the logP was 0.04.

In turn, `Nc1ccc(S(=O)(=O)Nc2cccnc2Cl)cc1` showed a logP of 1.58.

On to `COc1ccc(CN(C)N=O)cc1`, for which the logP came out at 1.62.

`CC(C)CC(=O)NN`: the log partition coefficient (logP) was -0.31.

Consider `Nc1ccc(S(=O)(=O)c2ccc(N)cc2)cc1`, for which the logP came out at 0.97.

Take `O=C(O)c1cc([N+](=O)[O-])cc([N+](=O)[O-])c1`: the logP worked out at 1.55.

`CC(C)(C)c1ccc(N)cc1` displayed a logP of 2.7.

In turn, `CCc1ccccc1O` registered a logP of 2.47.

In the case of `CCBr`, the logP is 1.61.

Compound `NC(=O)c1[nH]cnc1N` showed a logP of -1.1.

For the compound `COc1cccnc1CCCCNc1ncc(Cc2ccc(C)nc2)c(=O)[nH]1`, the logP was found to be 2.58.

Compound `Cc1cc2nc[nH]c2cc1C` displayed a logP of 2.35.

For the compound `Cn1cnc2c1c(=O)[nH]c(=O)n2C`, the lipophilicity (logP) is -0.78.

Compound `CCCCCN(C)/N=N/c1ccc(C(N)=O)cc1` came in with a logP of 3.18.

`O=[N+]([O-])c1cn[nH]c1`: the logP is 0.59.

`NC(=O)CCl` yielded a logP of -0.53.

In turn, `CCC1=C(N2CC2)C(=O)C(C)=C(N2CC2)C1=O` had a logP of 1.35.

`O=C(O)c1cc(O)c(O)c(O)c1`: the logP stood at 0.7.

`COc1cccc(OC(=O)N(C)C)c1` yielded a logP of 1.6.

`CN(C)c1ccc2c(c1)C(c1ccccc1Cl)=NCC(=O)N2C`: the logP stood at 2.72.

In the case of `COc1ccccc1CO`, the logP was determined as 1.13.

With `CN(C)c1ccc([N+](=O)[O-])cc1`, the logP came to 2.27.

In turn, `CNC(=O)C=Cc1ccccc1` returned a logP of 1.81.

In turn, `ClC(Cl)C(Cl)(Cl)Cl` showed a logP of 3.22.

Compound `NC(=O)N(CCCCCCN(N=O)C(N)=O)N=O` yielded a logP of 0.58.

Take `COc1cccc(C(=O)NC2CC3CCC(C2)N3Cc2ccccc2)c1OC` (stereo unspecified): the logP worked out at 3.24.

Consider `O=[N+]([O-])c1cccc(C(F)(F)F)c1`, for which the log partition coefficient (logP) amounted to 2.62.

In turn, `CCN(N=O)C(N)=O` came in with a lipophilicity (logP) of 0.23.

Take `CN(C)C(=O)OCc1ccc(OC(=O)N(C)C)cc1`: the logP amounted to 1.59.

The compound `CCCOc1cc(N)ccc1C(=O)O` returned a lipophilicity (logP) of 1.53.

`Nc1ccc(C(=O)O)cc1O` returned a logP of 0.5.

`O=C(O)C(c1ccccc1)n1cccc1` (stereo unspecified) returned a logP of 1.57.

Turning to `c1ccsc1`, the logP was 1.81.

Turning to `c1ccc2c(c1)Nc1ccccc1S2`, the logP was 4.15.

In turn, `NNC(=O)c1ccnc(-c2ccccc2)c1` registered a logP of 1.36.

Consider `C=C(C)C(=O)OCCCC`, for which the logP is 2.88.

`O=C(O)c1cccc(Br)c1`: the logP came out at 2.87.

As for `CC(=O)Oc1ccccc1Br`, the lipophilicity (logP) was determined as 2.2.

`CN(C)N=Nc1cccc(C(F)(F)F)c1` displayed a logP of 3.78.

`Cc1[nH]cnc1CSCCNc1cc[nH]c(=O)n1` registered a logP of -0.4.

Take `CCCOP(OCCC)OCCC`: the log partition coefficient (logP) was 2.26.

In turn, `CN1CCC=C1c1cccnc1` had a logP of 1.13.

In turn, `NCCCCc1cccnc1` had a logP of 0.88.

For the compound `CC(C)c1ccccc1OC(=O)c1ccc(N)cc1O`, the logP stood at 4.28.

Compound `COc1ccc(CC#N)cc1` showed a lipophilicity (logP) of 1.7.

The compound `CCCCOc1cccnn1` displayed a logP of 1.8.

`Cc1cccc2ncc(-c3ccccc3)c(=O)n12` had a logP of 2.59.

For `CNS(=O)(=O)c1ccc(N)cc1`, the logP is -0.01.

The compound `c1ccc2c(c1)ccc1c3ccc4ccccc4c3[nH]c21` had a logP of 6.4.

In turn, `Clc1cccc(-c2ccccc2Cl)c1` returned a logP of 5.02.

As to `c1cc2c3c(cccc3c1)CC2`, the logP stood at 3.92.

Regarding `Nc1ccc(C(=O)Oc2cccc(C(F)(F)F)c2)c(O)c1`, the logP turned out to be 3.61.

Compound `Clc1ccccc1Cl` had a logP of 3.43. The logP values of the last two compounds are within 0.2 log units of each other.

`CN(C)C(N(C)C)=S(I)c1cccc([N+](=O)[O-])c1` (stereo unspecified) returned a lipophilicity (logP) of -0.88.

In turn, `CC(=O)[C@@]1(O)CC[C@H]2[C@@H]3CCC4=CC(=O)CC[C@]4(C)[C@H]3CC[C@@]21C` had a logP of 3.17.

For the compound `CCC#N`, the logP worked out at 0.16.

Regarding `CNC(=O)C1C(C)CC2C3CCC4=CC(=O)C=CC4(C)C3(F)C(O)CC21C` (stereo unspecified), the log partition coefficient (logP) is 1.54.

`Oc1cccc(O)c1`: the log partition coefficient (logP) turned out to be 0.8.

The compound `CC(O)Cc1ccccc1` (stereo unspecified) yielded a logP of 1.97.

With `N#Cc1ccc(S(N)(=O)=O)cc1`, the logP amounted to 0.23.

`COc1cc(C(=O)O)ccc1O`: the logP is 1.43.

In the case of `CC(C)(C)NC(=O)[C@H]1CC[C@H]2[C@@H]3CC[C@H]4NC(=O)C=C[C@]4(C)[C@H]3CC[C@]12C`, the logP was found to be 3.03.

As for `CCCCC(=O)c1ccc[nH]1`, the lipophilicity (logP) amounted to 2.42.

In the case of `Oc1nc2ccccc2[nH]1`, the log partition coefficient (logP) was 1.12.

`c1cncnc1` registered a logP of -0.4.

`O=[N+]([O-])c1cnc(NC(CO)C(O)CO)cn1` (stereo unspecified): the logP was -0.89.

In turn, `COc1ccccc1-c1nc(N)nc(N)n1` had a logP of 0.58.

Turning to `NC(=O)c1ccccc1O`, the logP was determined as 1.28.

Take `NC(=O)CBr`: the logP is -0.52.

Turning to `ClC(Cl)(Cl)C(c1ccccc1)c1ccccc1`, the logP came out at 4.87.

`CCOCOCC` came in with a logP of 0.84.

In turn, `CC(=O)CC(C)=O` displayed a logP of 0.4.

Compound `CNC(=O)Oc1ccc(Cl)c(Cl)c1` came in with a logP of 2.8.

With `Cc1ccc2cccc(C)c2c1`, the lipophilicity (logP) worked out at 4.44.

For the compound `c1ccc2[nH]ncc2c1`, the lipophilicity (logP) was found to be 1.77.

In turn, `CCCCOC(=O)c1ccc(N)cc1` returned a logP of 2.87.

`CC1CN1C1=CC(=O)C(N2CC2C)=CC1=O` (stereo unspecified) gave a logP of 1.07.

With `N=C(N)NC(=O)Nc1ccc(Cl)cc1`, the logP is 1.78.

`Oc1ccc(Cl)c2ccccc12`: the logP worked out at 3.94.

Compound `CC(=O)C(=Cc1ccccc1)C(C)=O` displayed a logP of 1.59.

Consider `CC(C)NCC(O)COc1cccc2[nH]c3ccccc3c12` (stereo unspecified), for which the logP came out at 3.59.

Regarding `CCCC[N+](=O)[O-]`, the lipophilicity (logP) worked out at 1.47.

On to `CCN(CC)CCNc1ccc(C)c(Cl)c1`, for which the logP came out at 4.14.

For the compound `Cc1ccc(CO)cc1`, the logP is 1.58.

In the case of `CC1CN1C1=CC(=O)c2ccccc2C1=O` (stereo unspecified), the logP stood at 2.17.

Regarding `c1ccc(Nc2ccc3ccccc3c2)cc1`, the logP amounted to 4.38.

For the compound `N#Cc1ccc(C(O)C(CO)NC(=O)C(Cl)Cl)cc1` (stereo unspecified), the logP is 0.78.

As to `CCOc1ccccc1OCC`, the logP is 2.42.

With `Cc1cccc2cccc(C)c12`, the logP amounted to 4.26.

`NC(=O)CCCCOC(=O)c1ccccc1` showed a logP of 1.39.

The compound `C=C(Cl)Cl` displayed a logP of 2.13.

`CCC(=O)c1ccccc1O` yielded a logP of 2.54.

In turn, `COc1cc2c(cc1OC)C13CCN4CC5CCOC6CC(=O)N2C1C6C5CC43` (stereo unspecified) gave a logP of 0.84.

For `c1ccnnc1`, the logP is -0.72.

Compound `CC(C)(S)[C@@H](N)C(=O)O` showed a lipophilicity (logP) of -1.78.

Regarding `CC1CCC(O)CC1` (stereo unspecified), the logP worked out at 1.79.

Consider `COc1ccccc1C(N)=O`, for which the lipophilicity (logP) came out at 0.86.

As for `CCC(=O)O[C@]1(c2ccccc2)CCN(C)C[C@@H]1C`, the logP was 2.83.

With `O=C(O)Cc1cccc(I)c1`, the logP is 2.62.

In turn, `O=NN1CC=CC1` came in with a logP of 0.26.

For the compound `C=CCN(CC=C)CC=C`, the log partition coefficient (logP) turned out to be 2.59.

In the case of `Cn1nc2ccccc2n1`, the logP was found to be 1.64.

Regarding `OCc1cccnc1`, the logP was -0.02.

In the case of `CN(C)C(N(C)C)=S(I)c1ccccc1C(=O)O` (stereo unspecified), the lipophilicity (logP) was -1.4.

`COc1ccc2[nH]ccc2c1` showed a logP of 2.06.

On to `NC(Cc1ccc(F)cc1)C(=O)O` (racemic), for which the logP is -1.89.

Regarding `CC(=O)Oc1ccccc1Cl`, the logP came out at 2.18.

`CNC1=CC(=O)c2ccccc2C1=O` yielded a log partition coefficient (logP) of 1.74.

As to `CNC(=O)Oc1ccccc1C1OCCO1`, the logP came to 0.67.

`NC(=O)OCc1ccccc1` yielded a lipophilicity (logP) of 1.2.

As to `OC12CC3CC(CC(C3)C1)C2`, the logP turned out to be 2.14.

In turn, `CCC(C)c1cccc(C(C)CC)c1O` (stereo unspecified) returned a logP of 4.36.

`CC(C)c1cnc(NS(=O)(=O)c2ccc(N)cc2)nc1` showed a logP of 1.23.

Take `NCCc1ccccn1`: the logP was determined as 0.08.

With `CNC(=O)Oc1ccc(C(C)C)cc1`, the logP was 2.57.

In turn, `CC(C)C(Br)C(=O)NC(N)=O` (stereo unspecified) registered a logP of 1.14.

`OC(CF)CF` came in with a logP of -0.36.

For the compound `CSc1ccc2ccccc2n1`, the logP worked out at 3.04.

Take `CN(C)c1ccc(Cl)nn1`: the logP turned out to be 0.98.

`Oc1cccc2c(Cl)ccnc12` gave a lipophilicity (logP) of 2.67.

In turn, `Cc1cc(Cl)ccc1NC1=NCCN1` displayed a logP of 1.8.

In the case of `CCCCNC(=O)c1ccc(S(N)(=O)=O)cc1`, the logP turned out to be 1.05.

For `CCC(=O)OC1(C(C)=O)C(C)CC2C3CCC4=CC(=O)C=CC4(C)C3(F)C(O)CC21C` (stereo unspecified), the lipophilicity (logP) is 3.09.

Turning to `C=CCC(NC(C)=O)C(N)=O` (stereo unspecified), the logP is -0.86.

Compound `O=[N+]([O-])c1cccc2c1ccc[n+]2[O-]` came in with a lipophilicity (logP) of 0.49.

With `CC(=O)c1ccncc1`, the logP came out at 0.48.

For `CC(=O)c1cccc(OC(=O)N(C)C)c1`, the lipophilicity (logP) came out at 1.18.

`CNC(=O)Oc1cc(C)cc(C)c1` had a logP of 2.23.

Regarding `Cn1cc2ccc([N+](=O)[O-])cc2n1`, the logP came to 1.76.

Regarding `CNc1nc(NC(C)(C)C)nc(SC(F)F)n1`, the logP worked out at 3.91.

With `O=Cc1cccs1`, the logP was 1.02.

As for `Cc1cc[nH]c(=O)n1`, the log partition coefficient (logP) is -1.45.

The compound `CCCCCCOC(=O)n1cnc(CC(NC(=O)C2CCC(=O)N2)C(=O)N2CCCC2C(N)=O)c1` (stereo unspecified) came in with a logP of 0.71.

`COc1ccc(C=CNC=O)cc1`: the logP came out at 1.94.

With `CS(=O)(=O)c1ccccc1`, the logP stood at 0.5.

Regarding `COc1ccc(NS(=O)(=O)c2ccc(N)cc2)cc1`, the logP was found to be 1.51.

Values taken from the OPERA property sets (Mansouri et al. 2018).
